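Compound exposure: 48 hours, 5 concentrations, 96-well plates. TGI: total growth inhibition.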
Legend:
Experiment in all cases: NCI-60 cell line screen, 48 h
[1] = system: SF-539 CNS
[2] = system: NCI-H460 lung
[3] = system: SK-MEL-5 melanoma
[4] = system: COLO 205 colon
[5] = system: HCT-116 colon
[6] = system: UACC-257 melanoma
[7] = system: LOX IMVI melanoma
[8] = system: NCI-H226 lung
[9] = system: RPMI-8226 leukemia
[10] = system: IGROV1 ovarian
[11] = system: A549 NSCLC
[12] = system: SN12C renal
[13] = system: OVCAR-5 ovarian
[14] = system: SK-MEL-28 melanoma
[15] = system: MALME-3M melanoma
[16] = system: CCRF-CEM leukemia
[17] = system: SF-295 CNS
[18] = system: K-562 leukemia
[19] = system: M14 melanoma
[20] = system: TK-10 renal

Measured: TGI

N#CC(OC1OC(COC2OC(CO)C(O)C(O)C2O)C(O)C(O)C1O)c1ccccc1 (stereo unspecified)
not listed: [19] | [20]
> 225 µM: all other assays above

CN1C(=O)CSC1=S
> 100 µM: all assays above

C=CC1C(OC2OC(CO)C(O)C(O)C2O)OC=C(C(=O)OC)C1CC1CC(=O)CC(CCc2ccc(O)cc2)O1 (stereo unspecified)
> 100 µM: all assays above

O=C(c1ccccc1)c1c(-c2ccccc2)n(-c2ccccc2)[nH]c(=O)c1=O
46.8 µM: [1]
81.4 µM: [18]
35.5 µM: [16]
> 100 µM: all other assays above

COc1ccc(/C(Cl)=C(\C=O)c2ccc(OC)c(OC)c2)cc1
58.5 µM: [1]
not listed: [5] | [6] | [11] | [13]
> 100 µM: all other assays above

COC(=O)c1ccccc1Nc1nc(-c2cccs2)nc2cc(OC)c(OC)cc12
97.7 µM: [17]
89.4 µM: [8]
70.2 µM: [20]
85.9 µM: [1]
74.7 µM: [10]
not listed: [16]
> 100 µM: all other assays above

O=C1NP23(OCCO2)Oc2ccccc2C3(C(F)(F)F)O1 (stereo unspecified)
not listed: [4] | [9] | [10] | [13]
> 100 µM: all other assays above

COc1ccc(CC2c3cc(OC)c(OC)cc3CC[N+]2(C)C)cc1OC (stereo unspecified)
not listed: [19]
> 100 µM: all other assays above

Oc1cc(O)cc(-c2nc3cc(F)ccc3s2)c1
39.3 µM: [7]
> 100 µM: [11] | [15] | [16]
54 µM: [2]
40 µM: [4]
36 µM: [17]
76.5 µM: [20]
65.5 µM: [5]
70.9 µM: [10]
45.6 µM: [6]
37.1 µM: [3]
50.1 µM: [19]
77 µM: [14]
76.4 µM: [12]
57.2 µM: [13]
68.3 µM: [1]
50.2 µM: [9]
64.2 µM: [8]

CCC(C)C1NC(=O)C(NC(=O)c2c3[nH]c4c(C(=O)NC5C(=O)NC(C(C)CC)C(=O)N6CCCC6C(=O)N(C)CC(=O)N(C)C(C(C)C)C(=O)OC5C)ccc(C)c4oc-3c(C)c(=O)c2=O)C(C)OC(=O)C(C(C)C)N(C)C(=O)CN(C)C(=O)C2CCCN2C1=O (stereo unspecified)
9.81 µM: [16]
98.4 µM: [20]
35.1 µM: [9]
37.4 µM: [1]
40.4 µM: [5]
> 51.6 µM: [8]
> 65 µM: [18]
38.6 µM: [6]
8.45 µM: [2]
13.4 µM: [4]
22.8 µM: [15]
40.5 µM: [19]
> 53.4 µM: [7]
76.3 µM: [14]
> 93 µM: [17]
> 100 µM: all other assays above

c1ccc([P+](CC[P+](c2ccccc2)(c2ccccc2)c2ccccc2)(c2ccccc2)c2ccccc2)cc1
35 µM: [2]
7.79 µM: [9]
2.95 µM: [16]
> 63.4 µM: [15]
38.4 µM: [14]
24.9 µM: [4]
> 44.5 µM: [1]
11 µM: [6]
> 67.3 µM: [20]
39.6 µM: [3]
> 100 µM: all other assays above

O=C(O)C1C2C=CC(C2)C1c1ccccc1 (stereo unspecified)
not listed: [10]
> 100 µM: all other assays above

COc1cccc2cc(C(=O)O)c(=O)oc12
> 100 µM: all assays above

CC(=O)O/C(=C1\C[C@H]2[C@@H]3CC=C4C[C@@H](OC(C)=O)CC[C@]4(C)[C@H]3CC[C@]2(C)C1=O)C(F)(F)F
15.8 µM: [9]
40.7 µM: [8]
31.9 µM: [14]
18.8 µM: [5]
9.53 µM: [15]
13.9 µM: [16]
5.17 µM: [7]
35.9 µM: [17]
14.4 µM: [3]
25.7 µM: [4]
36.8 µM: [11]
15.1 µM: [6] | [18]
32.4 µM: [20]
15.2 µM: [1] | [19]
58.6 µM: [13]
18.3 µM: [2]
19.8 µM: [10]
24.1 µM: [12]

Source: PubChem BioAssay (NCI)
